Here are results for eight compounds from ChEMBL document CHEMBL1122535, “Mesoionic pyridazine ribonucleosides. A novel biologically active nucleoside metabolite” (1984).

Values after ≈ are worked out from the molar mass of the structure shown.

In experiment [1] the test system is Escherichia coli. Nature of the experiment: Minimum inhibitory concentration against Escherichia coli (EC) in Davis minimal media under Aerobic conditions(in vitro). The class given is functional.
Experiment [2] concerns Escherichia coli. The experiment can be described thus: Minimum inhibitory concentration against Escherichia coli (EC) in Davis minimal media under Anaerobic conditions(in vitro). The class given is functional.
The test system of experiment [3] is Escherichia coli. The experiment can be described thus: Minimum inhibitory concentration against Escherichia coli (EC) in Davis minimal media under Anaerobic conditions(in vitro); No indication of toxicity. The class given is functional, organism-based.
Experiment [4] deals with Escherichia coli. The experiment can be described thus: Minimum inhibitory concentration against Escherichia coli (EC) in Davis minimal media under aerobic conditions(in vitro); No indication of toxicity. The format is functional, organism-based.

In general, MIC refers to the smallest concentration in the dilution series that meets the test's criterion for growth inhibition. As for `CC(=O)OC[C@H]1O[C@@H]([n+]2ccc(Cl)c([O-])n2)[C@H](O)[C@@H]1O`, the minimal inhibitory concentration (MIC) in experiment [1] and in experiment [2] was 25 µg/mL (≈ 82.1 µM) in each case.
For `NC(=O)c1cc[n+]([C@@H]2O[C@H](CO)[C@@H](O)[C@H]2O)nc1[O-]`, the MIC result in experiment [3] and in experiment [4] was “No indication of toxicity” in each case.
`N.[O-]c1n[n+]([C@@H]2O[C@H](CO)[C@@H](O)[C@H]2O)ccc1S`: the MIC in experiment [2] amounted to 100 µg/mL.
Consider `N#Cc1cc[n+]([C@@H]2O[C@H](CO)[C@@H](O)[C@H]2O)nc1[O-]`, for which the minimal inhibitory concentration (MIC) amounted to 0.78 µg/mL (≈ 3.08 µM) in experiment [1] and 3.1 µg/mL (≈ 12.2 µM) in experiment [2].
Regarding `CC(=O)OC[C@H]1O[C@@H]([n+]2ccc(C#N)c([O-])n2)[C@H](O)[C@@H]1O`, the lowest concentration to inhibit growth in experiment [1] (MIC) was 100 µg/mL (≈ 339 µM).
Turning to `[O-]c1n[n+]([C@@H]2O[C@H](CO)[C@@H](O)[C@H]2O)ccc1Cl`, the MIC in experiment [1] and in experiment [2] was 0.2 µg/mL (≈ 0.761 µM) in each case.
In turn, `Nc1cc[n+]([C@@H]2O[C@H](CO)[C@@H](O)[C@H]2O)nc1[O-]` returned a minimal inhibitory concentration (MIC) in experiment [2] of 100 µg/mL (≈ 411 µM).
Still for that read-out and setting: the figure for `COc1cc[n+]([C@@H]2O[C@H](CO)[C@@H](O)[C@H]2O)nc1[O-]` is 100 µg/mL (≈ 387 µM).
